Data: patent US20090306112A1, “ANTIVIRAL PROTEASE INHIBITORS” (Gilead Sciences, Inc., priority 2006, published 2009)

These molecules were tested against T1, recombinant HIV-1 protease expressed in E. Coli (Human immunodeficiency virus type 1 group M subtype B, UniProt P04585) (assay: HIV-1 Protease Enzyme Assay (Ki), fluorimetric detection of hexapeptide substrate cleavage). Conditions: tight-binding competitive inhibition; 37° C., pH 5.3, final substrate concentration 40 μM, enzyme 1 to 2.5 nM.
T1 construct: Enzyme: recombinant HIV-1 protease expressed in E. Coli; purchased Bachem California, Inc. (Torrance, Calif.) H-9040; host or cells: E. coli
Format: biochemical
Source text: Biological Assays Used for the Characterization of HIV Protease Inhibitors HIV-1 Protease Enzyme Assay (Ki)
The assay is based on the fluorimetric detection of synthetic hexapeptide substrate cleavage by HIV-1 protease in a defined reaction buffer as initially described by M. V. Toth and G. R. Marshall, Int. J. Peptide Protein Res. 36, 544 (1990)
Substrate: (2-aminobenzoyl)Thr-Ile-Nle-(p-nitro)Phe-Gln-Arg
Substrate supplied by Bachem California, Inc. (Torrance, Calif.; Cat. no. H-2992)
Enzyme: recombinant HIV-1 protease expressed in E. Coli
Enzyme supplied by Bachem California, Inc. (Torrance, Calif.; Cat. no. H-9040)
Reaction buffer: • 100 mM ammonium acetate, pH 5.3 • 1 M sodium chloride • 1 mM ethylendiaminetetraacetic acid • 1 mM dithiothreitol • 10% dimethylsulfoxide
Assay Protocol for the Determination of Inhibition Constant Ki:
• 1. Prepare series of solutions containing identical amount of the enzyme (1 to 2.5 nM) and a tested inhibitor at different concentrations in the reaction buffer • 2. Transfer the solutions (190 uL each) into a white 96-well plate • 3. Preincubate for 15 min at 37° C. • 4. Solubilize the substrate in 100% dimethylsulfoxide at a concentration of 800 μM. Start the reaction by adding 10 μL of 800 μM substrate into each well (final substrate concentration of 40 μM) • 5. Measure the real-time reaction kinetics at 37° C. by using Gemini 96-well plate fluorimeter (Molecular Devices, Sunnyvale, Calif.) at λ(Ex)=330 nm and λ(Em)=420 nm • 6. Determine initial velocities of the reactions with different inhibitor concentrations and calculate Ki (in picomolar concentration units) value by using EnzFitter program (Biosoft, Cambridge, U.K.) according to an algorithm for tight-binding competitive inhibition described by Ermolieff J., Lin X., and Tang J., Biochemistry 36, 12364 (1997)

SMILES	Ki
COC(=O)NC(C(=O)NN(Cc1ccc(OCc2ccoc2)cc1)C[C@H](O)[C@H](Cc1ccc(OC)cc1)NC(=O)O[C@H]1CO[C@H]2OCC[C@H]21)C(C)(C)C (some centres unmarked) [Example V]	< 0.03 nM
COC(=O)NC(C(=O)NN(Cc1ccc(OCc2ccncc2)cc1)C[C@H](O)[C@H](Cc1ccc(OC)cc1)NC(=O)O[C@H]1CO[C@H]2OCC[C@H]21)C(C)(C)C (some centres unmarked) [Example T]	< 0.03 nM
CC(C)(C)C(NC(=O)OCc1cscn1)C(=O)NN(Cc1ccc(-c2ccccn2)cc1)C[C@H](O)[C@H](Cc1ccccc1)NC(=O)O[C@H]1CO[C@H]2OCC[C@H]21 (some centres unmarked) [Example M]	< 0.03 nM
CC(C)OC(=O)NC(C(=O)NN(Cc1ccc(-c2ccccn2)cc1)C[C@H](O)[C@H](Cc1ccccc1)NC(=O)O[C@H]1CO[C@H]2OCC[C@H]21)C(C)(C)C (some centres unmarked) [Example J]	< 0.03 nM
COC(=O)NC(C(=O)NN(Cc1ccc(-c2ccncc2)cc1)C[C@H](O)[C@H](Cc1ccc(OC)cc1)NC(=O)O[C@H]1CO[C@H]2OCC[C@H]21)C(C)(C)C (some centres unmarked) [Example Q]	< 0.03 nM
Cc1cccc(C)c1OCC(=O)NN(Cc1ccc(-c2ccccn2)cc1)C[C@H](O)[C@H](Cc1ccccc1)NC(=O)O[C@H]1CO[C@H]2OCC[C@H]21 [Example AN]	< 0.03 nM
COC(=O)NC(C(=O)NN(Cc1ccc(-c2ccccn2)cc1)C[C@H](O)[C@H](Cc1ccccc1)NC(=O)O[C@H]1C(=O)OCC1(C)C)C(C)(C)C (some centres unmarked) [Example C]	< 0.03 nM
CC(C)(C)C(NC(=O)C(F)(F)F)C(=O)NN(Cc1ccc(-c2ccccn2)cc1)C[C@H](O)[C@H](Cc1ccccc1)NC(=O)O[C@H]1CO[C@H]2OCC[C@H]21 (some centres unmarked) [Example N]	< 0.03 nM
